Measurements taken from patent US11161838B2, “Heterocyclic derivatives as PI3K inhibitors” (Incyte Corporation, priority 2018, dated 2021).
Where a name gives a salt, the structure may show the parent alone.

Experiments:
PI3Kγ (p110γ) = PI3Kγ (p110γ) (Homo sapiens (Human), UniProt P48736); experiment: PI3K-γ Scintillation Proximity Assay; format: biochemical; settings: 20 μM PIP2, 2 μM ATP, 13 nM PI3Kγ, 120 min, room temperature
Excerpt: Example B. PI3K-γ Scintillation Proximity Assay
(§1) [γ-^33P]ATP (10 mCi/mL) and Wheat Germ Agglutinin (WGA) YSi SPA Scintillation Beads was purchased from Perkin Elmer (Waltham, Mass.). Lipid kinase substrate, D-myo-Phosphatidylinositol 4,5-bisphosphate (PtdIns(4,5)P2)D (+)-sn-1,2-di-O-octanoylglyceryl, 3-O-phospho linked (PIP2), CAS 204858-53-7, was purchased from Echelon Biosciences (Salt Lake City, Utah). PI3Kγ (p110γ) Recombinant Human Protein was purchased from Life technology (Grand Island, N.Y.). ATP, MgCl2, DTT, EDTA, MOPS and CHAPS were purchased from Sigma Aldrich (St. Louis, Mo.).
(§2) The kinase reaction was conducted in polystyrene 384-well Greiner Bio-one white plate from Thermo Fisher Scientific in a final volume of 25 μL. Inhibitors were first diluted serially in DMSO and added to the plate wells before the addition of other reaction components. The final concentration of DMSO in the assay was 2%. The PI3Kγ assay was carried out at room temperature in 20 mM MOPS, pH 6.7, 10 mM MgCl2, 5 mM DTT and CHAPS 0.03%. Reactions were initiated by the addition of ATP, the final reaction mixture consisted of 20 μM PIP2, 2 μM ATP, 0.5 μCi [γ-^33P] ATP, 13 nM PI3Kγ. Reactions were incubated for 120 min and terminated by the addition of 40 μL SPA beads suspended in quench buffer: 163 mM potassium phosphate pH 7.8, 20% glycerol, 25 mM EDTA. The final concentration of SPA beads is 1.0 mg/mL. After the plate sealing, plates were shaken overnight at room temperature and centrifuged at 1500 rpm for 10 min, the radioactivity of the product was determined by scintillation counting on Topcount (Perkin-Elmer). IC50 determination was performed by fitting the curve of percent of the solvent control activity versus the log of the inhibitor concentration using the GraphPad Prism 6.0 software.

PI3Kδ (p110δ/p85α) = PI3Kδ (p110δ/p85α) (Homo sapiens (Human), UniProt O00329); experiment: PI3Kδ Scintillation Proximity Assay; format: biochemical; settings: 20 μM PIP2, 2 μM ATP, 3.4 nM PI3Kδ, 120 min, room temperature
Excerpt: Example C. PI3Kδ Scintillation Proximity Assay
as §1, with “Materials: [γ-^33P]ATP” for “[γ-^33P]ATP”, “PI3Kδ (p110δ/p85α)” for “PI3Kγ (p110γ)”, “Eurofins (St Charles, Mo.).” for “Life technology (Grand Island, N.Y.).”
as §2, with “PI3K6” for “PI3Kγ”, “3.4” for “13”, “PI3K6.” for “PI3Kγ.”, “(PerkinElmer).” for “(Perkin-Elmer).”

[1] = system: Phosphorylated Ribosomal Protein S6 (RPS6) in THP-1 cells; experiment: THP-1 RPS6 ELISA Assay; format: cell-based; settings: Homo sapiens; serum starved THP-1 cells, 2 hours with compound, then 10 nM MCP-1 for 15 minutes; Phospho-RPS6 ELISA; read-out: PI3Kγ_THP1_RPS6_ELISA IC50
Protocol: Example A. THP-1 RPS6 ELISA Assay
To measure the Phosphorylated Ribosomal Protein S6 (RPS6) in cell lysates, THP-1 cells (Human Acute Monocytic Leukemia) are purchased from ATCC (Manassas, Va.) and maintained in RPMI with 10% FBS (Gibco/Life Technologies, Carlsbad, Calif.). For the assay, THP-1 cells are serum starved overnight in RPMI, then plated in RPMI (2×10^5 cells/well in 90 μL) into 96-well flat-bottom tissue culture treated plates (Corning, Corning, N.Y.), in the presence or absence of a concentration range of test compounds. Covered plates are incubated for 2 hours at 37° C., 5% CO2 then treated with or without 10 nM MCP-1 (MYBioSource, San Diego, Calif.) for 15 minutes at 37° C., 5% CO2. Plates are centrifuged at 1600 RPM and supernatants are removed. Cells are lysed in Lysis Buffer (Cell Signaling, Danvers, Mass.) with Protease Inhibitor (Calbiochem/EMD, Germany), PMSF (Sigma, St Louis Mo.), HALTS (Thermo Fisher, Rockford, Ill.) for 30 min on wet ice. Cell lysates are frozen at −80 OC before testing. The lysates are tested in the Human/Mouse/Rat Phospho-RPS6 ELISA (R&D Systems, Inc. Minn, Minn.). The plate is measured using a microplate reader (SpectraMax M5—Molecular Devices, LLC Sunnyvale, Calif.) set to 450 nm with a wavelength correction of 540. IC50 determination is performed by fitting the curve of inhibitor percent inhibition versus the log of the inhibitor concentration using the GraphPad Prism 5.0 software.

Sequence of PI3Kγ (p110γ) (P48736 whole entry): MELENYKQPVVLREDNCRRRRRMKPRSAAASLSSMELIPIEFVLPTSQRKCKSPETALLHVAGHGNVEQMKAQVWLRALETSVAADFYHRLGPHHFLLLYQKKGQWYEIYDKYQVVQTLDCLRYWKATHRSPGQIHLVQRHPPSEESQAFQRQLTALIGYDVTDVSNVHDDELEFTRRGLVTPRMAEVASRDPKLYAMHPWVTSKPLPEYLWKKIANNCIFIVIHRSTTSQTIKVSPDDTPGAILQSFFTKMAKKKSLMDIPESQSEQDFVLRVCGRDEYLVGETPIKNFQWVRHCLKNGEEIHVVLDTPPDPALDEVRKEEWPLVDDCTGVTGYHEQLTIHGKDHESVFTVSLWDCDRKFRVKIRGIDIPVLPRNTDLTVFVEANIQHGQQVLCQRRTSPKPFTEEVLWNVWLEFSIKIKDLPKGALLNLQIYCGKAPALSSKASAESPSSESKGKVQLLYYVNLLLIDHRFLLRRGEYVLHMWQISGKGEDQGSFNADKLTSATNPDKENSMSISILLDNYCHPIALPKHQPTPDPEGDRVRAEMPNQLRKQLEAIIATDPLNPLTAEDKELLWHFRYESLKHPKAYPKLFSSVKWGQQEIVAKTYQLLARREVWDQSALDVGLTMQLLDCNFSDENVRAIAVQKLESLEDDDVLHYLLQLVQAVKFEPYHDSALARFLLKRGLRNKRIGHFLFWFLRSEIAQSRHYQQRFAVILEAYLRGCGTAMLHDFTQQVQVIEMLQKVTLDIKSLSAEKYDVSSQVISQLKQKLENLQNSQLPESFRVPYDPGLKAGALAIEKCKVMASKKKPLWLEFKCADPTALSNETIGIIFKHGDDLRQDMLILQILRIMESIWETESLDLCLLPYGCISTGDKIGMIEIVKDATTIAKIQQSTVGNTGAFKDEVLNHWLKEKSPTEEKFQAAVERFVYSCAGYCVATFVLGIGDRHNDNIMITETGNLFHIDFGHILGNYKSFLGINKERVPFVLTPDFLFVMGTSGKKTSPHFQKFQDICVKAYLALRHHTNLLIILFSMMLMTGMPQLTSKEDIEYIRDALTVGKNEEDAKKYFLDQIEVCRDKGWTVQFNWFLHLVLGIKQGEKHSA
Sequence of PI3Kδ (p110δ/p85α) (O00329 whole entry): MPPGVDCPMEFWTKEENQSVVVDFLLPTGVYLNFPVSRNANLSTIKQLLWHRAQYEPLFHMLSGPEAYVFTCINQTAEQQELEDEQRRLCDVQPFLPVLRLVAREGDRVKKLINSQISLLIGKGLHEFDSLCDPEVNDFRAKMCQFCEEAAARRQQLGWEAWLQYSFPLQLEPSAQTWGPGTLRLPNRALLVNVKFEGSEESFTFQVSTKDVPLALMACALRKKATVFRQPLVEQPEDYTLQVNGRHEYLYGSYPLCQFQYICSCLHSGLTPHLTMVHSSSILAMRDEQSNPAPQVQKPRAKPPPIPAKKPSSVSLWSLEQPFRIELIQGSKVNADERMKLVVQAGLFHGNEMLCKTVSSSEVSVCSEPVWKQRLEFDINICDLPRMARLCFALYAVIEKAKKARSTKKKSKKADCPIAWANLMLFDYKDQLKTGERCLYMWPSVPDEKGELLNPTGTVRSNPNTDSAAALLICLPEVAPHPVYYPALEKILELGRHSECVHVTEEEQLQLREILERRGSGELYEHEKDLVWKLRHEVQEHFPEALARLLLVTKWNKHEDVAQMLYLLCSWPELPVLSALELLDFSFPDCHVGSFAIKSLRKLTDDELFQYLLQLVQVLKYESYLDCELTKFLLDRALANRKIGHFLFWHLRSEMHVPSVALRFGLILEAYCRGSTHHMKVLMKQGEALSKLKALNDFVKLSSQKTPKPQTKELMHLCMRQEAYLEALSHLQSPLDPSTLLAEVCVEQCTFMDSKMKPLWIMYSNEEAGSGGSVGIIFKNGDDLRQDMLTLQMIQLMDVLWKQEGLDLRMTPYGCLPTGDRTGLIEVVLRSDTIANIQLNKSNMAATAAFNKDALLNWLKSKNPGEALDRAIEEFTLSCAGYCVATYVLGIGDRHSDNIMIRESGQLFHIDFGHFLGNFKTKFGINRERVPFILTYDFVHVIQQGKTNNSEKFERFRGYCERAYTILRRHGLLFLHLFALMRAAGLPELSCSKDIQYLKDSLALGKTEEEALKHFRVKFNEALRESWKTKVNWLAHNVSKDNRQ
Sequence of PI3Kδ (p110δ/p85α) (P27986 whole entry partner): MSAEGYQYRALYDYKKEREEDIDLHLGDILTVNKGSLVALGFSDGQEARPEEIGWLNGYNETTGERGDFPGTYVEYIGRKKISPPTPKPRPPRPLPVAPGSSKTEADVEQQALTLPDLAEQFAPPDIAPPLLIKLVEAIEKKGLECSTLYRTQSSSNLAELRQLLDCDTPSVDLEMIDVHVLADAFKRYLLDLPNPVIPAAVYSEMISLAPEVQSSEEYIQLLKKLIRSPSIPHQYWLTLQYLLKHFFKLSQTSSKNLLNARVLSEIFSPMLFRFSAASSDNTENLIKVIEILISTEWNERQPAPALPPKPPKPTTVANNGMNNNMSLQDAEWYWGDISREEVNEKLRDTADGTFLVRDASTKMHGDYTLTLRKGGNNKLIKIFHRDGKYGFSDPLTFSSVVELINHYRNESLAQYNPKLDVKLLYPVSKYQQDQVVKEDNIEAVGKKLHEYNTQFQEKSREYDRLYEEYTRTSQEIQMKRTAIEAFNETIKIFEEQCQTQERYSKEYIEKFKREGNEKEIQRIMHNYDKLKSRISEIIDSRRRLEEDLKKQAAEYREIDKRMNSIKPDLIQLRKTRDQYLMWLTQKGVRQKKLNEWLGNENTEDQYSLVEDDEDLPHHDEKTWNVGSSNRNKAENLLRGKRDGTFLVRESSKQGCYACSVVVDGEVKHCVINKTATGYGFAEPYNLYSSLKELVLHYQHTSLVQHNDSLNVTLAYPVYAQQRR

Row | Compound | IC50 (PI3Kγ (p110γ)) | IC50 (PI3Kδ (p110δ/p85α)) | IC50 [1]
1 | Cc1cc(-c2cnc(N)cn2)cc2cn(C(C)C3CC3)nc12 (centres unmarked) [Example 5, 5-(2-(1-Cyclopropylethyl)-7-methyl-2H-indazol-5-yl)pyrazin-2-amine, trifluoroacetate] | 100 to 500 nM | ≥ 2000 nM | –
2 | CC(C1CC1)n1nc2ccc(-c3cnc(N)cn3)cc2n1 (centres unmarked) [Example 6, 5-(2-(1-Cyclopropylethyl)-2H-benzo[d][1,2,3]triazol-5-yl)pyrazin-2-amine, trifluoroacetate] | 500 to 2000 nM | ≥ 2000 nM | –
3 | C[C@@H](C1CC1)N1Cc2cc(-c3cnc(N)c(-c4cn[nH]c4)n3)cc(S(C)(=O)=O)c2C1=O [Example 11, (S)-5-(5-Amino-6-(1H-pyrazol-4-yl)pyrazin-2-yl)-2-(1-cyclopropylethyl)-7-(methylsulfonyl)isoindolin-1-one, trifluoroacetate salt] | ≤ 100 nM | 500 to 2000 nM | –
4 | C[C@@H](C1CC1)N1Cc2cc(-c3cnc(N)c(-n4cncn4)n3)cc(S(C)(=O)=O)c2C1=O [Example 12, (S)-5-(5-Amino-6-(1H-1,2,4-triazol-1-yl)pyrazin-2-yl)-2-(1-cyclopropylethyl)-7-(methylsulfonyl)isoindolin-1-one, trifluoroacetate salt] | ≤ 100 nM | 500 to 2000 nM | ≥ 1000 nM
5 | C[C@@H](C1CC1)N1Cc2cc(-c3cnc(N)c(C4CN(C(=O)C5(C(F)(F)F)CC5)C4)n3)ccc2C1=O [Example 13, (S)-5-(5-Amino-6-(1-(1-(trifluoromethyl)cyclopropane-1-carbonyl)azetidin-3-yl)pyrazin-2-yl)-2-(1-cyclopropylethyl)isoindolin-1-one, 0.7× trifluoroacetate salt] | ≤ 100 nM | ≥ 2000 nM | –

The remaining lines, values ahead:

Row | IC50 (PI3Kγ (p110γ)) | IC50 (PI3Kδ (p110δ/p85α)) | IC50 [1] | Compound
6 | ≤ 100 nM | 500 to 2000 nM | ≥ 1000 nM | C[C@@H](C1CC1)N1Cc2cc(-c3cnc(N)c(C(=O)NC4CCOCC4)n3)ccc2C1=O [Example 1, (S)-3-Amino-6-(2-(1-cyclopropylethyl)-1-oxoisoindolin-5-yl)-N-(tetrahydro-2H-pyran-4-yl)pyrazine-2-carboxamide trifluoroacetate salt]
7 | ≤ 100 nM | 500 to 2000 nM | ≥ 1000 nM | CC(C)NC(=O)c1nc(-c2ccc3c(c2)CN([C@@H](C)C2CC2)C3=O)cnc1N [Example 2, (S)-3-Amino-6-(2-(1-cyclopropylethyl)-1-oxoisoindolin-5-yl)-N-isopropylpyrazine-2-carboxamide trifluoroacetate salt]
8 | ≤ 100 nM | 100 to 500 nM | 100 to 500 nM | C[C@@H](C1CC1)N1Cc2cc(-c3cnc(N)c(C(=O)NC4CCOCC4)n3)cc(S(C)(=O)=O)c2C1=O [Example 3, (S)-3-Amino-6-(2-(1-cyclopropylethyl)-7-(methylsulfonyl)-1-oxoisoindolin-5-yl)-N-(tetrahydro-2H-pyran-4-yl)pyrazine-2-carboxamide trifluoroacetate salt]
9 | ≤ 100 nM | 500 to 2000 nM | ≥ 1000 nM | CC(C)NC(=O)c1nc(-c2cc3c(c(S(C)(=O)=O)c2)C(=O)N([C@@H](C)C2CC2)C3)cnc1N [Example 4, (S)-3-Amino-6-(2-(1-cyclopropylethyl)-7-(methylsulfonyl)-1-oxoisoindolin-5-yl)-N-isopropylpyrazine-2-carboxamide trifluoroacetate salt]
10 | ≤ 100 nM | 500 to 2000 nM | ≥ 1000 nM | C[C@@H](C1CC1)N1Cc2cc(-c3cnc(N)c(-c4ccnn4C)n3)cc(S(C)(=O)=O)c2C1=O [Example 7, (S)-5-(5-Amino-6-(1-methyl-1H-pyrazol-5-yl)pyrazin-2-yl)-2-(1-cyclopropylethyl)-7-(methylsulfonyl)isoindolin-1-one, trifluoroacetate salt]
11 | ≤ 100 nM | 500 to 2000 nM | 500 to 1000 nM | C[C@@H](C1CC1)N1Cc2cc(-c3cnc(N)c(-c4cnn(C)c4)n3)cc(S(C)(=O)=O)c2C1=O [Example 8, (S)-5-(5-Amino-6-(1-methyl-1H-pyrazol-4-yl)pyrazin-2-yl)-2-(1-cyclopropylethyl)-7-(methylsulfonyl)isoindolin-1-one, trifluoroacetate salt]
12 | ≤ 100 nM | 100 to 500 nM | 500 to 1000 nM | Cc1ncc(-c2nc(-c3cc4c(c(S(C)(=O)=O)c3)C(=O)N([C@@H](C)C3CC3)C4)cnc2N)s1 [Example 9, (S)-5-(5-Amino-6-(2-methylthiazol-5-yl)pyrazin-2-yl)-2-(1-cyclopropylethyl)-7-(methylsulfonyl)isoindolin-1-one, trifluoroacetate salt]
13 | ≤ 100 nM | 500 to 2000 nM | ≥ 1000 nM | Cc1n[nH]cc1-c1nc(-c2cc3c(c(S(C)(=O)=O)c2)C(=O)N([C@@H](C)C2CC2)C3)cnc1N [Example 10, (S)-5-(5-Amino-6-(3-methyl-1H-pyrazol-4-yl)pyrazin-2-yl)-2-(1-cyclopropylethyl)-7-(methylsulfonyl)isoindolin-1-one, trifluoroacetate salt]
